Laboratory results taken from patent US20260041620A1, “NOVEL AMINO ACID BASED SALTS, COMPOSITIONS AND METHODS FOR TREATING SKIN AND IMPROVING SKIN REJUVENATION AND LONGEVITY” (Sytheon Ltd, priority 2023, published 2026).
Marks after values point to notes of the source that are not given here.

How the values were obtained:
[1] = system: normal human adipose-derived mesenchymal stem cells (MSC); experiment: Reprograming of aged mesenchymal stem cells, gene expression by qPCR; type: cell-based; details: 10 ug/ml, 72 hours, starved MSC
Excerpt: MSCs are a multipotent type of stem cell that, directly or indirectly, have a significant impact on a number of physiological processes, including the proliferation and differentiation of epidermal cells and regeneration of the epidermal layer; however, as they age they show lower stemness and regenerative potential. MSCs are shown to enhance wound healing, to restore the barrier function of the skin, and to address skin aging, particularly aging due to sun exposure as well as natural senescence, including reducing the manifestation and/or degree of wrinkles. An evaluation was conducted to ascertain the effect, if any, of zinc di-(di-n-butyryl lysinate) (“ZDBL”) on MSCs. Specifically, normal human adipose-derived mesenchymal stem cells (MSC) (ATCC, Manassas, VA—PCS-500-011) were seeded in mesenchymal stem cell basal medium (ATCC, Manassas, VA—PCS500-030) supplemented with the MSC growth kit starvation media (ATCC, Manassas, VA—PCS500-040-811S) and cultured at 37° C. in a humidified 5% CO2 atmosphere using an VWR tissue culture incubator, Approximately 24 hours after a portion of the cells was placed in the starvation medium to generate stress, they were exposed to the ZDBL (10 ug/ml) and incubated for 72 hours: the remaining portion was not exposed to the ZDBL. RNA was then extracted for gene expression quantification by qPCR.

HDAC1 = HDAC1 (Homo sapiens, UniProt Q13547); details: reported, abcam; cited from earlier work
HDAC2 = HDAC2 (Homo sapiens, UniProt Q92769); details: reported, abcam; cited from earlier work
HDAC6 = biological target: T1, HDAC6 (Homo sapiens, UniProt Q9UBN7); details: reported, abcam; cited from earlier work
T1 sequence (Q9UBN7 1-1215): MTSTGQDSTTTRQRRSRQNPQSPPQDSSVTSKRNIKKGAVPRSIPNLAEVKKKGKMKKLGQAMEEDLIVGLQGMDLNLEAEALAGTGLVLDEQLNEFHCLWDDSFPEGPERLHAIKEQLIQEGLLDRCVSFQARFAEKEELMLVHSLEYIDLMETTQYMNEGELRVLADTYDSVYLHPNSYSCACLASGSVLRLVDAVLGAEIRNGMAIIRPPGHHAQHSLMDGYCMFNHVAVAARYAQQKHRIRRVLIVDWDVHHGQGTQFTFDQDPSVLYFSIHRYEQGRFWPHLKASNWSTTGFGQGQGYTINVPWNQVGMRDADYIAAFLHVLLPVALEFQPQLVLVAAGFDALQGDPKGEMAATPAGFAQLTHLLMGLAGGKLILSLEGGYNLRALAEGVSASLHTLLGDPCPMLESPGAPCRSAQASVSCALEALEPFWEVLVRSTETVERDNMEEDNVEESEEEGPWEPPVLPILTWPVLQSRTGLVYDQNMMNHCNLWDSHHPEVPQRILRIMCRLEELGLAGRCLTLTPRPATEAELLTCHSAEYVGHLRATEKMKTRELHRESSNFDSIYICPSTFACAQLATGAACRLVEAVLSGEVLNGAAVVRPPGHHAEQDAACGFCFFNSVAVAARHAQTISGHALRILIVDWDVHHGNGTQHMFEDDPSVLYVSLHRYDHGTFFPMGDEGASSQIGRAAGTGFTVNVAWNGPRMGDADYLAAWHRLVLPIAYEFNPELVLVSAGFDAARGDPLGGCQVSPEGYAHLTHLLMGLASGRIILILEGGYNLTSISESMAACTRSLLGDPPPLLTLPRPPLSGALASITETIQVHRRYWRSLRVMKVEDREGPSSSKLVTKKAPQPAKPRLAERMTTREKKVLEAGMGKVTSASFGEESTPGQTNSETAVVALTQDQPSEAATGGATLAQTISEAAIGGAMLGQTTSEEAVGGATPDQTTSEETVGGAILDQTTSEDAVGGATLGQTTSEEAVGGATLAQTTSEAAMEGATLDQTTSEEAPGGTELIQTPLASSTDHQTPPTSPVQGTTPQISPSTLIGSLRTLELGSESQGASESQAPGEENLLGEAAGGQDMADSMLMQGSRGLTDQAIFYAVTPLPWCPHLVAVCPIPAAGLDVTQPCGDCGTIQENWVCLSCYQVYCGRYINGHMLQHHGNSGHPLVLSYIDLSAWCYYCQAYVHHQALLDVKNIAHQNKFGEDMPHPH

HDAC10 = biological target: T2, HDAC10 (Homo sapiens, UniProt Q969S8); details: reported, abcam; cited from earlier work
T2 sequence (Q969S8 1-669): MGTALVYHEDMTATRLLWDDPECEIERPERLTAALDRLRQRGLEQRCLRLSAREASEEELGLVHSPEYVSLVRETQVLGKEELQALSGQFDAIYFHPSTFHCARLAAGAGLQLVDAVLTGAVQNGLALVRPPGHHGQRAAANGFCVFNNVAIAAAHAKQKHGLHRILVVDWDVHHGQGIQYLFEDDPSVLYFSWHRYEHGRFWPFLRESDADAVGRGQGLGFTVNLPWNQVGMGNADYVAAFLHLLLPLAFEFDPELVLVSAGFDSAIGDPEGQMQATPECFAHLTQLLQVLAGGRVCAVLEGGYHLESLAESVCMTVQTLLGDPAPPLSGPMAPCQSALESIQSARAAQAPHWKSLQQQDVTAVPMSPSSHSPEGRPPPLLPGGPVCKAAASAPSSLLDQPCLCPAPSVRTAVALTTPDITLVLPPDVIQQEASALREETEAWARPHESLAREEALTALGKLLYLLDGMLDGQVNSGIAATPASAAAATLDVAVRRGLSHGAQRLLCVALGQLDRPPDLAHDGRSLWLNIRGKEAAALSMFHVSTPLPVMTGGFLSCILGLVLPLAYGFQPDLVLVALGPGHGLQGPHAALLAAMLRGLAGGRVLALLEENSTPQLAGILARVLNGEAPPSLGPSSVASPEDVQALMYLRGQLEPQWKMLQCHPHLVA

Chain of HDAC1 (Q13547 whole entry, species assumed): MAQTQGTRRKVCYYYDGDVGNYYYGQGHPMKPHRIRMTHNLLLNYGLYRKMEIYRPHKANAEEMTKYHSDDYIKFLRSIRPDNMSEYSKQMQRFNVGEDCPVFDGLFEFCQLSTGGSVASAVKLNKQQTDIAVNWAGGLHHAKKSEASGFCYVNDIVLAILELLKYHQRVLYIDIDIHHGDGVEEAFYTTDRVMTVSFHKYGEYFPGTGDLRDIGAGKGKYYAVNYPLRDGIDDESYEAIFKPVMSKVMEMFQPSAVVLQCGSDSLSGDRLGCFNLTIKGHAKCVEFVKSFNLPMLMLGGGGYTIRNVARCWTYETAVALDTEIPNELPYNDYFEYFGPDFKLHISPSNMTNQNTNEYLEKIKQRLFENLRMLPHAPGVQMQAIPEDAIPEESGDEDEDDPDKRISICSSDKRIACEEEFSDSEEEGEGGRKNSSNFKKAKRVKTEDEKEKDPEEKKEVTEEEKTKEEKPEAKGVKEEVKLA
Chain of HDAC2 (Q92769 whole entry): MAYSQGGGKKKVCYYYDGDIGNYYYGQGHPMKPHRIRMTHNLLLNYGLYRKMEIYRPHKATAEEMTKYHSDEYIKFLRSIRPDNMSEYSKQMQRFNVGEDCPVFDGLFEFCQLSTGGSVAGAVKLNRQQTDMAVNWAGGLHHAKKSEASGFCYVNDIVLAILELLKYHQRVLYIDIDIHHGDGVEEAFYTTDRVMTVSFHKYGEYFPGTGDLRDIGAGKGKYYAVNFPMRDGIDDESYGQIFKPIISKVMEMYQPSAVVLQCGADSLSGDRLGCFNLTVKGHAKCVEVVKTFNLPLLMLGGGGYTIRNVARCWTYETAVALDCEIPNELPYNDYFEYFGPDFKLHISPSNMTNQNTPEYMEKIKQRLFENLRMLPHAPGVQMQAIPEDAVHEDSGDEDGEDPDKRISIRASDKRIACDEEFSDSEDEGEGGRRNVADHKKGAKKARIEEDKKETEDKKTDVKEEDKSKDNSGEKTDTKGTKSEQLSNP

SMILES	BMP7 gene expression, Fold Change versus control [1]	DACT1 gene expression, Fold Change versus control [1]	DLK1 gene expression, Fold Change versus control [1]	DPP4 gene expression, Fold Change versus control [1]	OCT4 gene expression, Fold Change versus control [1]	SOX2 gene expression, Fold Change versus control [1]	SQSTM1/p62 gene expression, Fold Change versus control [1]	TP63 gene expression, Fold Change versus control [1]	WNT2 gene expression, Fold Change versus control [1]	IC50 (HDAC1)	IC50 (HDAC2)	inhibition of HDAC6 (HDAC6)	inhibition of HDAC10 (HDAC10)
CCCC(=O)NCCCC[C@H](NC(=O)CCC)C(=O)[O-].CCCC(=O)NCCCC[C@H](NC(=O)CCC)C(=O)[O-].[Zn+2] [Zn di-(di-n-butyryl lysinate), Zinc di-(di-n-butyryl lysinate)]	1.8* fold	2.2** fold	2.4** fold	−1.8** fold	1.7** fold	2.4* fold	1.7* fold	3.0** fold	1.9** fold				
CCCC(=O)[O-].[Na+] [Sodium butyrate, reference compound]										300 µM	400 µM	no inhibition	no inhibition
